According to the NIST ThermoML archive (doi:10.1016/j.jct.2018.10.015):
Numbers after ± are expanded uncertainties.

Assay: xn = mol fraction of the nth substance listed
Settings: 101.3 kPa, Liquid; for viscosity: Concentric cylinders viscometry; for mass density: Vibrating tube method

CCn1cc[n+](C)c1C.O=S(=O)([N-]S(=O)(=O)C(F)(F)F)C(F)(F)F + CCOC(=O)OCC
Settings	mass density, 293.15 K [kg/m3]	mass density, 298.15 K [kg/m3]	mass density, 303.15 K [kg/m3]	mass density, 308.15 K [kg/m3]	viscosity, 293.15 K [mPa·s]	viscosity, 298.15 K [mPa·s]	viscosity, 303.15 K [mPa·s]	viscosity, 308.15 K [mPa·s]
x1 = 0.1731	1150.1 ± 2.5	1144.8 ± 2.5	1139.5 ± 2.4	1134.2 ± 2.4	3.168 ± 0.042	2.871 ± 0.035	2.615 ± 0.032	2.394 ± 0.029
x1 = 0.302	1242.2 ± 2.4	1237.1 ± 2.4	1232 ± 2.4	1226.9 ± 2.4	6.382 ± 0.08	5.646 ± 0.068	5.032 ± 0.061	4.515 ± 0.055
x1 = 0.4028	1298.8 ± 2.4	1293.7 ± 2.5	1288.6 ± 2.4	1283.6 ± 2.4	10.53 ± 0.13	9.149 ± 0.11	8.021 ± 0.097	7.089 ± 0.085
x1 = 0.4991	1343.7 ± 2.5	1338.7 ± 2.5	1333.7 ± 2.5	1328.7 ± 2.5	16.14 ± 0.2	13.79 ± 0.17	11.9 ± 0.14	10.37 ± 0.12
x1 = 0.6093	1387 ± 2.5	1382 ± 3	1377.1 ± 2.5	1372.2 ± 2.5	25.06 ± 0.31	21.02 ± 0.26	17.84 ± 0.22	15.31 ± 0.18
x1 = 0.7039	1418.8 ± 2.5	1413.9 ± 2.5	1409 ± 3	1404.1 ± 2.5	35.42 ± 0.44	29.27 ± 0.36	24.52 ± 0.3	20.78 ± 0.25
x1 = 0.7951	1445.6 ± 2.5	1440.8 ± 2.5	1435.9 ± 2.5	1431.1 ± 2.5	48.11 ± 0.59	39.24 ± 0.48	32.49 ± 0.4	27.23 ± 0.33
x1 = 0.8901	1470.6 ± 2.5	1465.8 ± 2.5	1461 ± 2.5	1456.2 ± 2.5	64.72 ± 0.81	52.12 ± 0.63	42.65 ± 0.52	35.38 ± 0.43
x1 = 1	1495.8 ± 2.5	1491 ± 2.5	1486.3 ± 2.5	1481.5 ± 2.5	89.88 ± 1.3	71.34 ± 0.92	57.64 ± 0.7	47.26 ± 0.58
